Experimental data reported in patent publication US20230131966A1, “FUNGICIDAL AMIDES” (FMC Corporation, priority 2020, published 2023).

Tests used:
Assay type in all cases: in vivo
[1] = system: Erysiphe graminis f. sp. tritici; assay: Test G: wheat powdery mildew control on wheat seedlings
Plasmopara viticola = assay: Test D: grape downy mildew control on grape seedlings
Zymoseptoria tritici = assay: Test C: wheat leaf blotch control on wheat seedlings
[2] = system: Puccinia recondita f. sp. tritici; assay: Test B: wheat leaf rust control on wheat seedlings
Phakopsora pachyrhizi = assay: Test A: Asian soybean rust control on soybean seedlings
Phytophthora infestans = assay: whole plant or invertebrate; conditions: tomato seedlings; for Test F disease control rating: 250 ppm
Botrytis cinerea = assay: Test E: tomato Botrytis control on tomato seedlings
[3] = 250 ppm, 100 = 100% disease control, 0 = no control
[4] = 250 ppm, wheat seedlings, 100 = 100% disease control, 0 = no control
[5] = 250 ppm, soybean seedlings, 100 = 100% disease control, 0 = no control
[6] = 100 = 100% disease control, 0 = no control
[7] = rate 250 ppm, relative to the controls

Row | SMILES | Test G disease control rating [1, 3] | Test D disease control rating (Plasmopara viticola; [3]) | Test C disease control rating (Zymoseptoria tritici; [4]) | Test B disease control rating [2, 4] | Test A disease control rating (Phakopsora pachyrhizi; [5]) | Test F disease control rating (Phytophthora infestans; [6]) | Test E disease control rating (Botrytis cinerea; [3]) | further results
1 | COc1ccnc(C(=O)NC(C)C(=O)OC(C)C2CCc3ccccc3O2)c1O (mixture of isomers) [Compound 164] | 0% | 0% | 99% | 99% | 100% | 0% | 0% | 
2 | CCC(OC(=O)[C@H](C)NC(=O)c1nccc(OC)c1OCOC(C)=O)C1CCCCC1 (single isomer, unassigned) [Compound 190] |  |  |  |  |  |  |  | Test G disease control rating (100 = 100% disease control, 0 = no disease control) [1, 7]: 0%; Test D disease control rating (100 = 100% disease control, 0 = no disease control) (Plasmopara viticola; [7]): 43%; Test C disease control rating (100 = 100% disease control, 0 = no disease control) (Zymoseptoria tritici; [7]): 46%; Test B disease control rating (100 = 100% disease control, 0 = no disease control) [2, 7]: 74%; Test A disease control rating (100 = 100% disease control, 0 = no disease control) (Phakopsora pachyrhizi; [7]): 100%; Test F disease control rating (100 = 100% disease control, 0 = no disease control) (Phytophthora infestans; [7]): 0%; Test E disease control rating (100 = 100% disease control, 0 = no disease control) (Botrytis cinerea; [7]): 0%
3 | COc1ccnc(C(=O)NC(C)C(=O)OC(C)C23CC4CC(CC(C4)C2)C3)c1OC(C)=O (mixture of isomers) [Compound 43] | 0% | 71% | 90% | 100% | 100% | 0% | 0% | 
4 | COc1ccnc(C(=O)NC(C)C(=O)OC(C)c2ncc(C(F)(F)F)cc2Cl)c1O (mixture of isomers) [Compound 166] | 0% | 15% | 0% | 68% | 97% | 0% | 0% | 
5 | COc1ccnc(C(=O)NC(C)C(=O)OC(C)c2ccc(F)cc2Oc2ccc(F)cc2)c1O (mixture of isomers) [Compound 82] | 0% | 82% | 79% | 55% | 95% | 0% | 0% | 
6 | COc1ccnc(C(=O)N[C@@H](C)C(=O)OC(c2ccc(C3CCCCC3)cc2)C(F)(F)F)c1OC(C)=O (some centres unmarked) [Compound 119] | 48% | 27% | 88% | 99% | 100% | 0% | 0% | 
7 | CCCCCCc1ccc(C(C)OC(=O)C(C)NC(=O)c2nccc(OC)c2O)cc1 (mixture of isomers) [Compound 68] | 0% | 46% | 97% | 95% | 100% | 40% | 0% | 
8 | COc1cccc(C(=O)N[C@@H](C)C(=O)OC(C)c2ccccc2Cc2ccccc2)c1OC(C)=O (single isomer, unassigned) [Compound 7] | 0% | 35% | 0% | 0% | 0% | 0% | 0% | 
9 | COc1ccnc(C(=O)N[C@@H](C)C(=O)OC(C)C2CCCc3ccccc32)c1O (single isomer, unassigned) [Compound 184] | 0% | 64% | 100% | 99% | 100% | 0% | 0% | 
10 | COc1ccnc(C(=O)N[C@@H](C)C(=O)OC(C)c2cccc(OC3CCC(C)(C)CC3)c2)c1OC(C)=O (some centres unmarked) [Compound 137] | 43% | 11% | 92% | 100% | 100% | 0% | 0% | 
11 | COc1ccnc(C(=O)N[C@@H](C)C(=O)OC(C)c2ccc(C3CCCCC3)cc2)c1OCOC(C)=O (single isomer, unassigned) [Compound 146] | 60% | 31% | 91% | 91% | 73% | 0% | 0% | 
12 | COc1ccnc(C(=O)N[C@@H](C)C(=O)OC(C)c2cccc(-c3ccccc3)c2)c1O (single isomer, unassigned) [Compound 3] | 0% | 32% | 83% | 99% | 100% | 0% | 16% | 
13 | COc1ccnc(C(=O)NC(C)C(=O)OC(C)c2ccc(C#N)cc2)c1OC(C)=O (mixture of isomers) [Compound 33] | 0% | 66% | 87% | 0% | 13% | 0% | 0% | 
14 | COc1ccnc(C(=O)N[C@@H](C)C(=O)OC(C)c2ccc(-n3ccc(C(F)(F)F)n3)cc2Cc2ccccc2)c1O (some centres unmarked) [Compound 93] | 0% | 0% | 72% | 74% | 99% | 0% | 0% | 
15 | CCC(OC(=O)[C@H](C)NC(=O)c1nccc(OC)c1OCOC(=O)C(C)C)C1CCCCC1 (single isomer, unassigned) [Compound 170] | 0% | 32% | 100% | 100% | 100% | 0% | 0% | 
16 | COc1ccnc(C(=O)N[C@@H](C)C(=O)OC(C)c2ccc(C3CCCCC3)cc2)c1OCOC(C)=O (single isomer, unassigned) [Compound 147] | 94% | 38% | 95% | 99% | 100% | 71% | 0% | 
17 | COc1ccnc(C(=O)N[C@@H](C)C(=O)OC(C)C2CCC(c3ccccc3)CC2)c1OC(C)=O (mixture of isomers) [Compound 104, N-[[3-(acetyloxy)-4-methoxy-2-pyridinyl]carbonyl]-L-alanine 1-(4-phenylcyclohexyl)ethyl ester] |  |  |  |  |  |  |  | pest or weed control at 250 ppm ([1]; Blumeria graminis, 250 ppm, 100 = 100% disease control, 0 = no control, read-out: Test G disease control rating): 0%; pest or weed control at 250 ppm (Plasmopara viticola; Plasmopara viticola, 250 ppm, 100 = 100% disease control, 0 = no control, read-out: Test D disease control rating): 65%; pest or weed control at 250 ppm (Zymoseptoria tritici; Zymoseptoria tritici, 250 ppm, wheat seedlings, 100 = 100% disease control, 0 = no control, read-out: Test C disease control rating): 93%; pest or weed control at 250 ppm ([2]; Puccinia recondita, 250 ppm, wheat seedlings, 100 = 100% disease control, 0 = no control, read-out: Test B disease control rating): 100%; pest or weed control at 250 ppm (Phakopsora pachyrhizi; Phakopsora pachyrhizi, 250 ppm, soybean seedlings, 100 = 100% disease control, 0 = no control, read-out: Test A disease control rating): 100%; pest or weed control at 250 ppm (Phytophthora infestans; Phytophthora infestans, in Solanum lycopersicum, read-out: Test F disease control rating, 250 ppm, 100 = 100% disease control, 0 = no control): 0%; pest or weed control at 250 ppm (Botrytis cinerea; Botrytis cinerea, 250 ppm, 100 = 100% disease control, 0 = no control, read-out: Test E disease control rating): 0%
